{
  "source": "patent US20110028509A1",
  "about": "“Sulfonamides” (MERCK SERONO SA, priority 2008, published 2011)",
  "data": [
    {"molecular_target": "T1, CXCR3 (Homo sapiens, UniProt P49682)", "T1 sequence (P49682 1-368)": "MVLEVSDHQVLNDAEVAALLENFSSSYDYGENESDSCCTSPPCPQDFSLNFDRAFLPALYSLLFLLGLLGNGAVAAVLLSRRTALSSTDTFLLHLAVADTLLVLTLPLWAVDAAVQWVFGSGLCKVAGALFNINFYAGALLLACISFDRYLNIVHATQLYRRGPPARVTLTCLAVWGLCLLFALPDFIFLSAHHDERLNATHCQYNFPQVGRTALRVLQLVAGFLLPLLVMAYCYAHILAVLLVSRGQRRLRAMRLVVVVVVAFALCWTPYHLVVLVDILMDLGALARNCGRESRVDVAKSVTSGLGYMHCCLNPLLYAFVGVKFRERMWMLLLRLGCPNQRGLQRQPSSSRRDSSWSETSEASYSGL", "experiment": "Chemotaxis assay ITAC (CXCL11), L1.2-CXCR3 cells", "format": "cell-based", "design": "expressed in transfected cells", "conditions": "1 nM CXCL11 (I-TAC), 4 hours", "method": "Human CXCR3 cDNA was amplified by PCR from a human cells cDNA library (Clontech) and subcloned into pcDNA3.1 (Invitrogen). Murine pre-B L1.2 cells were transfected with hCXCR3-pcDNA3.1 and were grown at 37° C., 5% CO2 in RPMI 1640 medium (Invitrogen, USA) supplemented with 5% heat inactivated fetal calf serum (Cancerra, Australia), 2 mM glutamine (Invitrogen), 50 units ml−1 penicillin, 50 μml−1 streptomycin. Stable transfectant clonal populations were selected using 800 μg/ml geneticin.\nL1.2-CXCR3 cells were grown for 24 hours at 0.5×10^6 cells/ml in chemotaxis medium containing 5 mM butyric acid (Sigma). Compounds were on one hand mixed with 1 nM of CXCL11 (I-TAC) in phenol-red free RPMI 1640 (invitrogen) supplemented with 5% fetal bovine serum in presence of 1% DMSO. The CXCL11/compounds mixture was then added to lower chambers of chemotaxis 96 well microplates (neuroprobe), and framed filters ([…] pore size) were put on top of the lower chambers. Compounds were on the other hand mixed with L1.2 CXCR3 cells and incubated in chemotaxis medium at 1.5×10^6 cells/ml in presence of 1% DMSO at 37° C., 5% CO2 for 30 minutes. Cells/compounds mixture was then added on top of the frame filters and migration was performed at 37° C., 5% CO2 for 4 hours. The number of migrated cells in the bottom chamber was determined using the CyQuant GR dye (Molecular Probe), according to the manufacturer.", "units": {"IC50": "µM"}, "values": [
      {"molecule": "CCOc1ccc(S(=O)(=O)N(Cc2ccc(C(=O)O)c(F)c2)Cc2ccccn2)cc1", "note": "[Example 66, 4-{[(4-Ethoxy-benzenesulfonyl)-pyridin-2-ylmethyl-amino]-methyl}-2-fluoro-benzoic acid]", "IC50": 4.6},
      {"molecule": "N#Cc1ccc(S(=O)(=O)N(Cc2ccc(C(=O)O)c(F)c2)Cc2ccccn2)cc1", "note": "[Example 67, 4-{[[(4-cyanophenyl)sulfonyl](pyridin-2-ylmethyl)amino]methyl}-2-fluorobenzoic acid]", "IC50": 3.06},
      {"molecule": "Cc1nc(CN(Cc2ccc(-c3nnn[nH]3)cc2)S(=O)(=O)c2ccc(Cl)cc2)cs1", "note": "[Example 68, 4-chloro-N-(2-methyl-thiazol-4-ylmethyl)-N-[4-(2H-tetrazol-5yl)benzyl]benzenesulfonamide]", "IC50": 0.13},
      {"molecule": "O=C(NCC1CC1)c1ccc(CN(Cc2cccc[n+]2[O-])S(=O)(=O)c2ccc(Cl)cc2)cc1", "note": "[Example 134, 4-{[(4-Chloro-benzenesulfonyl)-(1-oxy-pyridin-2-ylmethyl)-amino]-methyl}-N-cyclopropylmethyl-benzamide]", "IC50": 2.98},
      {"molecule": "C[C@@H](c1ccc(NC(=O)C2(c3ccccc3)CC2)cc1)N(Cc1ccccn1)S(=O)(=O)c1ccc(Cl)cc1", "note": "[Example 164]", "IC50": 4.27},
      {"molecule": "N#Cc1ccc(S(=O)(=O)N(Cc2ccccn2)C2(c3ccc(C(=O)NC4(c5ccccc5)CC4)cc3)CC2)cc1", "note": "[Example 176]", "IC50": 4.45}
    ]},
    {"molecular_target": "T1, CXCR3", "experiment": "CXCR3 Ca2+ mobilization (FLIPR), stable hCXCR3-CHO cell line, I-TAC stimulated", "format": "cell-based", "design": "host or cells: CHO cells stably expressing hCXCR3", "conditions": "hCXCR3-CHO cells, I-TAC 100 nM stimulated Ca2+ response; read-out: Ca-ITAC", "method": "Human chinese hamster ovary (CHO) cell line stably expressing hCXCR3 was purchased from Euroscreen (Belgium) and culture in HAM's F12 (Invitrogen) containing 10% heat inactivated fetal calf serum (Cancerra, Australia), 50 units ml−1 penicillin, 50 μml−1 streptomycin, (Invitrogen, USA) and 400 μg/ml geneticin (G418) (Calbiochem, San Diego), according to the manufacturer.\nCXCR3Ca^2+ mobilization was measured using a stable hCXCR3—CHO cell line and a microtiter-plate based assay using FLIPR^TETRA™ (Molecular Devices). In more detail, cells were harvested and plated into black 384-well plates (Becton-Dickinson) at a density of 15 000 cells per well and grown in the incubator for 18 hours. On the next day the media was aspirated and replaced with the cell loading buffer (HBSS—(Invitrogen) based buffer containing calcium indicator and signal enhancer from a commercial Ca2+ assay kit (Becton Dickinson). The plates were incubated for 60 minutes in the incubator, the test compounds were added and the plates equilibrated for 20 minutes at room temperature.\nPlates were placed into FLIPR and the CXCR3 agonist (I-TAC, 100 nM) stimulated fluorescence change was quantitated. The activity of CXCR3 antagonists was determined as percent of the CXCR3 ligand I-TAC in the absence of the test compounds (=100% activity).", "units": {"IC50": "µM"}, "values": [
      {"molecule": "CCOc1ccc(S(=O)(=O)N(Cc2ccc(C(=O)O)c(F)c2)Cc2ccccn2)cc1", "note": "[Example 66, 4-{[(4-Ethoxy-benzenesulfonyl)-pyridin-2-ylmethyl-amino]-methyl}-2-fluoro-benzoic acid]", "IC50": 2},
      {"molecule": "N#Cc1ccc(S(=O)(=O)N(Cc2ccc(C(=O)O)c(F)c2)Cc2ccccn2)cc1", "note": "[Example 67, 4-{[[(4-cyanophenyl)sulfonyl](pyridin-2-ylmethyl)amino]methyl}-2-fluorobenzoic acid]", "IC50": 0.505},
      {"molecule": "Cc1nc(CN(Cc2ccc(-c3nnn[nH]3)cc2)S(=O)(=O)c2ccc(Cl)cc2)cs1", "note": "[Example 68, 4-chloro-N-(2-methyl-thiazol-4-ylmethyl)-N-[4-(2H-tetrazol-5yl)benzyl]benzenesulfonamide]", "IC50": 2},
      {"molecule": "CC(C)(C)c1ccc(S(=O)(=O)N(Cc2ccc(C#N)cc2)Cc2ccccn2)cc1", "note": "[Example 177]", "IC50": 1.45},
      {"molecule": "COc1cccc(S(=O)(=O)N(Cc2ccc(C#N)cc2)Cc2ccccn2)c1", "note": "[Example 178]", "IC50": 2},
      {"molecule": "CC(C)(C)OC(=O)N[C@@H](C(=O)Nc1ccc(CN(Cc2ccccn2)S(=O)(=O)c2ccc(Cl)cc2)cc1)c1ccccc1", "note": "[Example 180]", "IC50": 1},
      {"molecule": "COC(C(=O)Nc1ccc(CN(Cc2ccccn2)S(=O)(=O)c2ccc(Cl)cc2)cc1)c1ccccc1", "note": "(stereo not shown) [Example 182]", "IC50": 0.04},
      {"molecule": "O=C(Nc1ccc(CN(Cc2ccccn2)S(=O)(=O)c2ccc(Cl)cc2)cc1)C(O)c1cccc(Cl)c1", "note": "(stereo not shown) [Example 184]", "IC50": 1},
      {"molecule": "N#Cc1ccc(CN(Cc2ccccn2)S(=O)(=O)c2ccccc2Cl)cc1", "note": "[Example 186]", "IC50": 5},
      {"molecule": "O=C(NC1(c2ccccc2)CC1)c1ccc(CN(Cc2cnccn2)S(=O)(=O)c2ccc(Cl)cc2)cc1", "note": "[Example 187]", "IC50": 4},
      {"molecule": "CCOC(=O)c1ccc(CN(Cc2ccccn2)S(=O)(=O)c2ccc(OCC)cc2)cc1", "note": "[Example 191]", "IC50": 13},
      {"molecule": "N#Cc1ccccc1CN(Cc1ccccn1)S(=O)(=O)c1ccc(Cl)cc1", "note": "[Example 196]", "IC50": 13},
      {"molecule": "N#Cc1ccc(CN(CCCc2ccccc2)S(=O)(=O)c2ccc(Cl)cc2)cc1", "note": "[Example 198]", "IC50": 3.1},
      {"molecule": "O=S(=O)(c1ccc(Cl)cc1)N(CCc1ccccc1)Cc1ccc(-c2nnn[nH]2)cc1", "note": "[Example 204]", "IC50": 2.01},
      {"molecule": "CCOc1ccc(S(=O)(=O)N(Cc2ccc(C(=O)NCC(C)c3ccccc3)cc2)Cc2cccnc2)cc1", "note": "(stereo not shown) [Example 206]", "IC50": 4.5},
      {"molecule": "O=S(=O)(c1ccc(Cl)cc1)N(CCCc1ccccc1)Cc1ccc(-c2nnn[nH]2)cc1", "note": "[Example 221]", "IC50": 1.7},
      {"molecule": "CC(CCc1ccccc1)N(Cc1ccc(-c2nnn[nH]2)cc1)S(=O)(=O)c1ccc(Cl)cc1", "note": "(stereo not shown) [Example 224]", "IC50": 1.5},
      {"molecule": "CC(CN(Cc1ccc(-c2nnn[nH]2)cc1)S(=O)(=O)c1ccc(Cl)cc1)c1ccccc1", "note": "(stereo not shown) [Example 227]", "IC50": 5},
      {"molecule": "O=S(=O)(c1ccc(Cl)cc1)N(Cc1cccc(-c2nnn[nH]2)c1)Cc1ccccn1", "note": "[Example 228]", "IC50": 2.8},
      {"molecule": "O=S(=O)(c1ccc(Cl)cc1)N(Cc1ccccc1)Cc1ccccc1-c1nnn[nH]1", "note": "[Example 229]", "IC50": 1.6},
      {"molecule": "N#Cc1cccc(CN(Cc2ccccc2)S(=O)(=O)c2ccc(Cl)cc2)c1", "note": "[Example 230]", "IC50": 1.2},
      {"molecule": "O=S(=O)(c1ccc(Cl)cc1)N(Cc1ccccc1)Cc1cccc(-c2nnn[nH]2)c1", "note": "[Example 234]", "IC50": 1.5},
      {"molecule": "CC(C)(Cc1ccccc1)N(Cc1ccc(-c2nnn[nH]2)cc1)S(=O)(=O)c1ccc(Cl)cc1", "note": "[Example 236]", "IC50": 3},
      {"molecule": "O=S(=O)(c1ccccc1Oc1ccccc1)N(Cc1ccc(-c2nnn[nH]2)cc1)Cc1ccccn1", "note": "[Example 237]", "IC50": 25},
      {"molecule": "O=S(=O)(c1ccccc1-c1ccccc1)N(Cc1ccc(-c2nnn[nH]2)cc1)Cc1ccccn1", "note": "[Example 253]", "IC50": 9.5},
      {"molecule": "CCOc1ccc(S(=O)(=O)N(Cc2ccc(N3CCOCC3)cc2)Cc2ccccn2)cc1", "note": "[Example 269]", "IC50": 9},
      {"molecule": "CCOc1ccc(S(=O)(=O)N(Cc2ccc(Oc3ccncc3)cc2)Cc2ccccn2)cc1", "note": "[Example 270]", "IC50": 6},
      {"molecule": "CC(c1cccc(-c2nnn[nH]2)c1)N(Cc1ccccc1)S(=O)(=O)c1ccc(Cl)cc1", "note": "(stereo not shown) [Example 271]", "IC50": 5},
      {"molecule": "N#Cc1ccc(CN(C(=O)c2ccccn2)S(=O)(=O)c2ccc(Cl)cc2)cc1", "note": "[Example 279, 4-Chloro-N-(4-cyano-benzyl)-N-(pyridine-2-carbonyl)-benzenesulfonamide]", "IC50": 10},
      {"molecule": "O=S(=O)(c1ccc(Cl)cc1)N(Cc1ccc(-c2nnn[nH]2)cc1)Cc1ccccc1-n1cccn1", "note": "[Example 280]", "IC50": 20},
      {"molecule": "N#Cc1ccc(C(=O)N(Cc2ccccn2)S(=O)(=O)c2ccc(Cl)cc2)cc1", "note": "[Example 281, 4-Chloro-N-(4-cyano-benzoyl)-N-pyridin-2-ylmethyl-benzenesulfonamide]", "IC50": 7},
      {"molecule": "N#Cc1ccc(S(=O)(=O)N(Cc2ccc(C(=O)NC3(c4ccc(OC(F)(F)F)cc4)CC3)cc2)Cc2ccccn2)cc1", "note": "[Example 282]", "IC50": 5.5},
      {"molecule": "CCOc1ccc(S(=O)(=O)N(Cc2ccc(C(=O)NC3(c4ccc(OC(F)(F)F)cc4)CC3)cc2)Cc2ccccn2)cc1", "note": "[Example 283]", "IC50": 7.5},
      {"molecule": "N#Cc1ccc(CCN(Cc2ccccn2)S(=O)(=O)c2ccc(Cl)cc2)cc1", "note": "[Example 286, 4-Chloro-N-[2-(4-cyano-phenyl)-ethyl]-N-pyridin-2-ylmethyl-benzenesulfonamide]", "IC50": 4},
      {"molecule": "Cc1ccccc1S(=O)(=O)N(Cc1ccc(C#N)cc1)Cc1ccccn1", "note": "[Example 287]", "IC50": 7},
      {"molecule": "N#Cc1ccc(CN(C2CCc3cc(Cl)ccc32)S(=O)(=O)c2ccc(Cl)cc2)cc1", "note": "(stereo not shown) [Example 299]", "IC50": 5.5},
      {"molecule": "N#Cc1ccc(S(=O)(=O)N(Cc2ccc(NC(=O)Cc3nnn[nH]3)cc2)Cc2ccccn2)cc1", "note": "[Example 300]", "IC50": 12},
      {"molecule": "Cc1cccc(S(=O)(=O)N(Cc2ccc(-c3nnn[nH]3)cc2)Cc2ccccn2)c1", "note": "[Example 311]", "IC50": 10},
      {"molecule": "N#Cc1ccc(CN(Cc2ccccn2)S(=O)(=O)c2cccc(Cl)c2)cc1", "note": "[Example 313]", "IC50": 15},
      {"molecule": "O=C(O)c1ccc(CN(Cc2cnccn2)S(=O)(=O)c2ccc(Cl)cc2)cc1", "note": "[Example 319]", "IC50": 20},
      {"molecule": "COc1cc(OC)nc(CN(Cc2ccc(C(=O)O)cc2)S(=O)(=O)c2ccc(Cl)cc2)n1", "note": "[Example 328]", "IC50": 13},
      {"molecule": "O=C(NC1(c2ccccc2)CC1)c1ccc(CN(Cc2ccc3cccnc3n2)S(=O)(=O)c2ccc(Cl)cc2)cc1", "note": "[Example 330]", "IC50": 10},
      {"molecule": "COC(=O)C(Cc1ccc(O)cc1)NC(=O)c1ccc(CN(Cc2ccccn2)S(=O)(=O)c2ccc(Cl)cc2)cc1", "note": "(stereo not shown) [Example 345]", "IC50": 18},
      {"molecule": "CCOc1ccc(S(=O)(=O)N(Cc2ccc(C(=O)O)c(OC)c2)Cc2ccccn2)cc1", "note": "[Example 346]", "IC50": 7},
      {"molecule": "CCOc1ccc(S(=O)(=O)N(Cc2ccc(C(=O)OC)c(O)c2)Cc2ccccn2)cc1", "note": "[Example 353]", "IC50": 6},
      {"molecule": "O=C(NC(Cc1ccc(O)cc1)C(=O)O)c1ccc(CN(Cc2ccccn2)S(=O)(=O)c2ccc(Cl)cc2)cc1", "note": "(stereo not shown) [Example 354]", "IC50": 6}
    ]}
  ]
}
